Test results as given in ChEMBL document CHEMBL1201862, “PubChem BioAssay data set” (2004).
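Where inhibition never reached the appropriate level, the endpoint shown equals the highest concentration tested. Otherwise, values were interpolated linearly from a five-concentration, 48-hour dose response in 96-well plates. At the GI50, growth is halved.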 Activity calls are given as the source filed them. Rule as the data show it: active = GI50 up to about 1.1 µM and inactive = higher.

How the values were obtained:
Assay in all cases: NCI tumour cell line growth inhibition, 48 h
DMS-114 = tested on: DMS-114
DLD-1 = tested on: DLD-1
SNB-78 = tested on: SNB-78
RXF 631 = tested on: RXF 631
XF498 = tested on: XF498
LXFL 529 = tested on: LXFL 529
DMS-273 = tested on: DMS-273
M19-MEL = tested on: M19-MEL
KM-20L2 = tested on: KM-20L2

`NC1C2(CCCCCC2)NC(=O)C12CCCCCC2` (centres undefined) was tested, and the GI50 (DMS-114) was > 100 µM (inactive), the GI50 (DLD-1) was > 100 µM (inactive) and the GI50 (SNB-78) was > 100 µM (inactive). For the same compound, the GI50 (RXF 631) was > 100 µM (inactive), the GI50 (XF498) was > 100 µM (inactive) and the GI50 (LXFL 529) was > 100 µM (inactive). The GI50 (DMS-273) was > 100 µM (inactive).
For `O=C(Cc1ccccc1)NN1C(=O)C(Cl)C1c1ccccc1O` (centres undefined), the GI50 (M19-MEL) was 19.3 µM (inactive), the GI50 (DMS-114) was 4.46 µM (inactive) and the GI50 (KM-20L2) was 4.57 µM (inactive). For the same compound, the GI50 (DLD-1) was 9.95 µM (inactive), the GI50 (SNB-78) was 50.7 µM (inactive) and the GI50 (XF498) was 43.6 µM (inactive). The GI50 (LXFL 529) was 24.4 µM (inactive) and the GI50 (DMS-273) was 20.5 µM (inactive).
`Cn1cc(C(=O)C[n+]2ccccc2)c2ccccc21` was tested, and the GI50 (M19-MEL) was 59.8 µM (inactive), the GI50 (DMS-114) was 49.7 µM (inactive) and the GI50 (KM-20L2) was 33 µM (inactive). The GI50 (DLD-1) was > 100 µM (inactive), the GI50 (XF498) was 86.9 µM (inactive) and the GI50 (LXFL 529) was > 10 µM (inactive). For the same compound, the GI50 (DMS-273) was 42.3 µM (inactive).
For `Oc1c(Cl)c2nccnc2c2ccccc12`, the GI50 (M19-MEL) was > 100 µM (inactive), the GI50 (DMS-114) was > 100 µM (inactive) and the GI50 (KM-20L2) was > 100 µM (inactive). For the same compound, the GI50 (DLD-1) was > 100 µM (inactive), the GI50 (SNB-78) was > 100 µM (inactive) and the GI50 (XF498) was > 100 µM (inactive). For the same compound, the GI50 (LXFL 529) was > 100 µM (inactive) and the GI50 (DMS-273) was > 100 µM (inactive).
For `Cc1nc2c(o1)C(=O)c1ccccc1/C2=N\c1ccccc1`, the GI50 (M19-MEL) was 1.82 µM (inactive), the GI50 (DMS-114) was 1.48 µM (inactive) and the GI50 (KM-20L2) was 20.5 µM (inactive). For the same compound, the GI50 (DLD-1) was 13.7 µM (inactive), the GI50 (SNB-78) was 3.22 µM (inactive) and the GI50 (RXF 631) was > 10 µM (inactive). The GI50 (XF498) was 2.86 µM (inactive), the GI50 (LXFL 529) was 3.23 µM (inactive) and the GI50 (DMS-273) was 2.49 µM (inactive).
`N#C[C@]12CC3(CC[C@H]1CC1(C2)OCCO1)OCCO3` was tested, and the GI50 (M19-MEL) was > 100 µM (inactive), the GI50 (DMS-114) was > 100 µM (inactive) and the GI50 (KM-20L2) was > 100 µM (inactive). For the same compound, the GI50 (DLD-1) was > 100 µM (inactive), the GI50 (SNB-78) was > 100 µM (inactive) and the GI50 (RXF 631) was > 100 µM (inactive). For the same compound, the GI50 (LXFL 529) was > 100 µM (inactive) and the GI50 (DMS-273) was > 100 µM (inactive).
`O=C(c1ccccc1)C1OC12C(=O)Nc1c(Cl)cc(Cl)cc12` (centres undefined) was tested, and the GI50 (M19-MEL) was 27 µM (inactive), the GI50 (DMS-114) was 30.1 µM (inactive) and the GI50 (KM-20L2) was 72.1 µM (inactive). The GI50 (DLD-1) was 18.6 µM (inactive), the GI50 (SNB-78) was > 50.5 µM (inactive) and the GI50 (RXF 631) was 27 µM (inactive). The GI50 (XF498) was 10.7 µM (inactive), the GI50 (LXFL 529) was 23.6 µM (inactive) and the GI50 (DMS-273) was 15.9 µM (inactive).
With `Cc1[nH]c2ccccc2c1C(=O)CC1(O)C(=O)Nc2c(Cl)cc(Cl)cc21` (centres undefined) the GI50 (M19-MEL) was 9.31 µM (inactive), the GI50 (DMS-114) was 24.3 µM (inactive) and the GI50 (DLD-1) was 44.9 µM (inactive). The GI50 (SNB-78) was 40.7 µM (inactive), the GI50 (RXF 631) was 29.4 µM (inactive) and the GI50 (XF498) was 18.2 µM (inactive). For the same compound, the GI50 (LXFL 529) was 16.4 µM (inactive) and the GI50 (DMS-273) was 49.1 µM (inactive).
In the case of `COc1ccc2nc3cc(Cl)ccc3c(SCC(=O)Nc3ccccc3-c3ccccc3NC(=O)CSc3c4ccc(Cl)cc4nc4ccc(OC)cc34)c2c1`, the GI50 (M19-MEL) is reported as > 100 µM (inactive), the GI50 (DMS-114) is reported as > 100 µM (inactive) and the GI50 (KM-20L2) is reported as > 100 µM (inactive). For the same compound, the GI50 (DLD-1) was > 100 µM (inactive), the GI50 (SNB-78) was > 100 µM (inactive) and the GI50 (XF498) was > 100 µM (inactive). The GI50 (LXFL 529) was > 100 µM (inactive) and the GI50 (DMS-273) was > 100 µM (inactive).
With `Cc1cc(Cc2cc(C)c(NC(=O)C(=O)C3C(=O)NC(=S)NC3=O)c(C(C)C)c2)cc(C(C)C)c1NC(=O)C(=O)C1C(=O)NC(=S)NC1=O` the GI50 (M19-MEL) was > 100 µM (inactive), the GI50 (DMS-114) was > 100 µM (inactive) and the GI50 (KM-20L2) was > 100 µM (inactive). The GI50 (DLD-1) was > 100 µM (inactive), the GI50 (SNB-78) was > 100 µM (inactive) and the GI50 (RXF 631) was > 100 µM (inactive). For the same compound, the GI50 (LXFL 529) was > 100 µM (inactive) and the GI50 (DMS-273) was > 100 µM (inactive).
For `Cc1cccc(-c2cc(=O)c3cc(C)c(C)c(C(=O)O)c3o2)c1`, the GI50 (M19-MEL) was > 100 µM (inactive), the GI50 (DMS-114) was > 100 µM (inactive) and the GI50 (KM-20L2) was > 100 µM (inactive). The GI50 (DLD-1) was > 100 µM (inactive), the GI50 (SNB-78) was > 100 µM (inactive) and the GI50 (RXF 631) was > 100 µM (inactive). The GI50 (XF498) was > 100 µM (inactive), the GI50 (LXFL 529) was > 100 µM (inactive) and the GI50 (DMS-273) was > 100 µM (inactive).
`O=C1NC(=O)c2c1n(Cc1ccccc1)c(=O)n2Cc1ccccc1` was tested, and the GI50 (M19-MEL) was > 100 µM (inactive), the GI50 (DMS-114) was > 100 µM (inactive) and the GI50 (KM-20L2) was > 100 µM (inactive). The GI50 (DLD-1) was > 100 µM (inactive), the GI50 (SNB-78) was > 100 µM (inactive) and the GI50 (LXFL 529) was > 100 µM (inactive). For the same compound, the GI50 (DMS-273) was > 100 µM (inactive).
In the case of `C[N+]1=c2c3cccc4cccc(c(=O)n2CCC1)c43`, the GI50 (M19-MEL) is reported as 17.9 µM (inactive), the GI50 (DMS-114) is reported as 20.6 µM (inactive) and the GI50 (KM-20L2) is reported as 20 µM (inactive). For the same compound, the GI50 (DLD-1) was 21.4 µM (inactive), the GI50 (SNB-78) was 29 µM (inactive) and the GI50 (XF498) was 18.6 µM (inactive). The GI50 (LXFL 529) was 17.6 µM (inactive) and the GI50 (DMS-273) was 24.4 µM (inactive).
`Cc1ccc(S(=O)(=O)Nc2cccc(C)c2C)cc1` was tested, and the GI50 (M19-MEL) was 67.5 µM (inactive), the GI50 (DMS-114) was 28.8 µM (inactive) and the GI50 (SNB-78) was 62.1 µM (inactive). For the same compound, the GI50 (RXF 631) was 66.1 µM (inactive), the GI50 (XF498) was < 0.01 µM (active) and the GI50 (LXFL 529) was 56.2 µM (inactive). For the same compound, the GI50 (DMS-273) was 45.6 µM (inactive).
`C=C(C[N+](C)(C)C)N/N=C/c1oc(-c2ccc(OC)c(OC)c2)c(-c2ccc(OC)c(OC)c2)c1[N+](=O)[O-]` was tested, and the GI50 (M19-MEL) was 15.5 µM (inactive), the GI50 (KM-20L2) was 31.7 µM (inactive) and the GI50 (DLD-1) was 19.9 µM (inactive). For the same compound, the GI50 (SNB-78) was 36.4 µM (inactive), the GI50 (XF498) was 23.7 µM (inactive) and the GI50 (LXFL 529) was 22.9 µM (inactive).
`COC(=O)c1c(O)ccc(O)c1C(C(C)=O)C(C)=O` was tested, and the GI50 (M19-MEL) was > 100 µM (inactive), the GI50 (DMS-114) was > 100 µM (inactive) and the GI50 (DLD-1) was > 100 µM (inactive). For the same compound, the GI50 (SNB-78) was > 100 µM (inactive), the GI50 (XF498) was > 100 µM (inactive) and the GI50 (LXFL 529) was > 100 µM (inactive). For the same compound, the GI50 (DMS-273) was > 100 µM (inactive).
In the case of `Cc1noc2c1C(=O)CCC2`, the GI50 (M19-MEL) is reported as > 100 µM (inactive), the GI50 (DMS-114) is reported as > 100 µM (inactive) and the GI50 (KM-20L2) is reported as > 100 µM (inactive). The GI50 (DLD-1) was > 100 µM (inactive), the GI50 (SNB-78) was > 100 µM (inactive) and the GI50 (XF498) was > 100 µM (inactive). The GI50 (LXFL 529) was > 100 µM (inactive).
`O=C1c2c(O)cccc2C(C(=O)CCCCC(=O)C2c3cccc(O)c3C(=O)c3c(O)cccc32)c2cccc(O)c21` was tested, and the GI50 (DMS-114) was 0.522 µM (active), the GI50 (KM-20L2) was 0.918 µM (active) and the GI50 (DLD-1) was 1.04 µM (active). The GI50 (SNB-78) was 0.55 µM (active), the GI50 (RXF 631) was 0.78 µM (active) and the GI50 (XF498) was 0.501 µM (active). The GI50 (LXFL 529) was 0.441 µM (active) and the GI50 (DMS-273) was 1.63 µM (inactive).
In the case of `N#CN1CC[C@@H]2CC3(CCC2C1)OCCO3` (some centres undefined), the GI50 (M19-MEL) is reported as > 100 µM (inactive), the GI50 (DMS-114) is reported as > 100 µM (inactive) and the GI50 (KM-20L2) is reported as > 100 µM (inactive). The GI50 (DLD-1) was > 100 µM (inactive), the GI50 (SNB-78) was > 100 µM (inactive) and the GI50 (RXF 631) was > 100 µM (inactive). For the same compound, the GI50 (XF498) was > 100 µM (inactive), the GI50 (LXFL 529) was > 100 µM (inactive) and the GI50 (DMS-273) was > 100 µM (inactive).
For `CCOC(=O)c1[nH]c(CN(C)Cc2[nH]c(C(=O)OCC)c(C)c2C(=O)OCc2ccccc2)c(C(=O)OCc2ccccc2)c1C`, the GI50 (DMS-114) was 12.7 µM (inactive), the GI50 (KM-20L2) was 3.04 µM (inactive) and the GI50 (DLD-1) was 33.9 µM (inactive). The GI50 (SNB-78) was > 100 µM (inactive), the GI50 (RXF 631) was 4.11 µM (inactive) and the GI50 (LXFL 529) was 13.1 µM (inactive). The GI50 (DMS-273) was 10 µM (inactive).
For `CNC1=Nc2ccc(Cl)cc2C(c2ccccc2)=NN1C`, the GI50 (M19-MEL) was > 100 µM (inactive), the GI50 (DMS-114) was 53.2 µM (inactive) and the GI50 (KM-20L2) was > 100 µM (inactive). The GI50 (DLD-1) was > 100 µM (inactive), the GI50 (SNB-78) was > 100 µM (inactive) and the GI50 (RXF 631) was 74 µM (inactive). The GI50 (XF498) was 31.6 µM (inactive), the GI50 (LXFL 529) was > 100 µM (inactive) and the GI50 (DMS-273) was > 100 µM (inactive).
`C[N+]12c3ccccc3O[B-]1(c1ccccc1)Oc1ccccc12` (centres undefined) was tested, and the GI50 (DMS-114) was 17.6 µM (inactive), the GI50 (DLD-1) was 18.2 µM (inactive) and the GI50 (SNB-78) was 47 µM (inactive). For the same compound, the GI50 (LXFL 529) was 28.4 µM (inactive) and the GI50 (DMS-273) was 29.2 µM (inactive).
